Among the test systems are M14 melanoma; HOP-62 NSCLC; MDA-MB-435; MOLT-4 leukemia; HS 578T breast; EKVX NSCLC; SF-539 CNS; MDA-MB-231 breast; SN12C renal; UACC-257 melanoma.
Holding throughout (experiment): inhibition of tumour cell growth, NCI panel, 48 h

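Results reflect a 48-hour exposure of cells in 96-well plates to compound at five concentrations. GI50 = concentration required for 50% inhibition of growth. TGI: concentration producing complete growth inhibition.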

Turning to `O=[N+]([O-])/C(C(Cl)=C(Cl)Cl)=C(\SCc1ccccc1)N1CCCCC1`, the TGI with M14 melanoma is 45.6 µM; in the experiment on HOP-62 NSCLC, above 100 µM; in the experiment with MDA-MB-435, 35.5 µM; with MOLT-4 leukemia it was 41.1 µM; with HS 578T breast, above 100 µM; with EKVX NSCLC, above 100 µM. The TGI in the experiment with SF-539 CNS is 46 µM; with MDA-MB-231 breast, 37.3 µM; with SN12C renal, 47.6 µM; in the experiment with UACC-257 melanoma, 77.2 µM.

For the compound `Cc1cc(O)c2c(=O)c3ccccc3[nH]c2c1`, the TGI is 52.6 µM in the experiment on M14 melanoma; 71.2 µM with HOP-62 NSCLC; above 100 µM in the experiment with MDA-MB-435; above 100 µM in the experiment on MOLT-4 leukemia; 84.6 µM in the experiment on HS 578T breast; above 100 µM in the experiment with EKVX NSCLC. Also, the TGI with SF-539 CNS is 33 µM; in the experiment with MDA-MB-231 breast, above 100 µM; in the experiment on SN12C renal it was above 100 µM; in the experiment with UACC-257 melanoma, 54.2 µM.

On to `O=c1[nH]cc(N=Cc2cc(Cl)cc(Cl)c2O)c(=O)[nH]1`, for which the TGI is 47.8 µM in the experiment on M14 melanoma; 57 µM in the experiment with HOP-62 NSCLC; 61.8 µM with MDA-MB-435; 69.7 µM with MOLT-4 leukemia; 67.1 µM in the experiment with HS 578T breast; above 100 µM in the experiment with EKVX NSCLC. Besides, the TGI was 43.6 µM with SF-539 CNS, above 100 µM in the experiment with MDA-MB-231 breast, above 100 µM in the experiment with SN12C renal and 83.8 µM in the experiment on UACC-257 melanoma.

As for `Cc1ccc(SCC(CSCCO)OCn2cnc3c2NC(N)=NC32OCCO2)cc1` (stereo not drawn), the TGI with M14 melanoma, in the experiment with HOP-62 NSCLC, in the experiment with MDA-MB-435, in the experiment with MOLT-4 leukemia, with HS 578T breast and with EKVX NSCLC was above 100 µM in each case. For the same compound, the TGI in the experiment on SF-539 CNS, in the experiment on MDA-MB-231 breast and in the experiment on UACC-257 melanoma was above 100 µM in each case.

On to `CCC1(O)CC2CC(=O)OC2C1O` (stereo not drawn), for which the TGI with M14 melanoma, in the experiment on HOP-62 NSCLC, in the experiment on MDA-MB-435, with MOLT-4 leukemia, in the experiment on HS 578T breast and in the experiment on EKVX NSCLC was above 100 µM each time. Besides, the TGI in the experiment with SF-539 CNS, in the experiment with MDA-MB-231 breast and in the experiment with UACC-257 melanoma was above 100 µM throughout.

Regarding `CC1(C)N=C(/C(Cl)=[N+](/[O-])C(=O)c2ccc(F)cc2)C(C)(C)N1O`, the TGI in the experiment on M14 melanoma stood at 30.3 µM; in the experiment on HOP-62 NSCLC, 40 µM; with MDA-MB-435, 49.3 µM; in the experiment with HS 578T breast, 57.1 µM; with EKVX NSCLC, 40.6 µM; in the experiment on SF-539 CNS it was 40.1 µM. Also, the TGI with MDA-MB-231 breast worked out at 33.6 µM; in the experiment on SN12C renal, 29.2 µM; in the experiment with UACC-257 melanoma it was 32.3 µM.

As for `O=C1CCC(=O)N1n1c(Cc2ccccc2)n[nH]c1=O`, the TGI in the experiment on M14 melanoma, in the experiment on HOP-62 NSCLC, with MDA-MB-435, in the experiment with MOLT-4 leukemia, in the experiment on HS 578T breast and in the experiment on EKVX NSCLC was above 100 µM each time. Besides, the TGI in the experiment with MDA-MB-231 breast, with SN12C renal and in the experiment on UACC-257 melanoma was above 100 µM in each case.

Regarding `COC(=O)C1CCC(=O)N1C(c1ccccc1)c1ccc(OC)c(OC)c1` (stereo not drawn), the TGI in the experiment on M14 melanoma, in the experiment on HOP-62 NSCLC, with MDA-MB-435, in the experiment on HS 578T breast, with EKVX NSCLC and in the experiment on SF-539 CNS was above 100 µM throughout. Also, the TGI in the experiment on MDA-MB-231 breast, with SN12C renal and with UACC-257 melanoma was above 100 µM throughout.

As to `NC(=O)C(c1ccccc1)N1OC2C(=O)N(c3ccccc3)C(=O)C2C1c1c2ccccc2c(Cl)c2ccccc12` (stereo not drawn), the TGI with M14 melanoma, in the experiment with HOP-62 NSCLC, with MDA-MB-435, in the experiment on MOLT-4 leukemia, in the experiment on HS 578T breast and in the experiment on EKVX NSCLC was above 100 µM throughout. For the same compound, the TGI in the experiment on SF-539 CNS, in the experiment with MDA-MB-231 breast and in the experiment with SN12C renal was above 100 µM throughout.

Take `CC[C@@]1(O)C(=O)OCc2c1cc1n(c2=O)Cc2c-1nc1ccccc1c2/C=N\NC(=O)CN`: the TGI in the experiment on HOP-62 NSCLC was 3.73 µM; in the experiment on MDA-MB-435, 41.5 µM; with MOLT-4 leukemia, 0.368 µM; with HS 578T breast, above 100 µM; with EKVX NSCLC it was above 100 µM; with SF-539 CNS it was 0.127 µM. Moreover, the TGI is above 100 µM in the experiment on MDA-MB-231 breast, above 100 µM in the experiment with SN12C renal and above 60.8 µM in the experiment on UACC-257 melanoma.

In the case of `COc1ccc(C2c3cc4c(cc3OC(NNS(=O)(=O)c3ccc(C)cc3)C2C)OCO4)cc1` (stereo not drawn), the TGI in the experiment on M14 melanoma, in the experiment on HOP-62 NSCLC, in the experiment with MDA-MB-435, in the experiment on MOLT-4 leukemia, in the experiment on HS 578T breast and in the experiment with SF-539 CNS was above 100 µM each time. Also, the TGI in the experiment with MDA-MB-231 breast, in the experiment with SN12C renal and in the experiment with UACC-257 melanoma was above 100 µM each time.

For the compound `CCCNC1=C2CC(C)CC(OC)[C@@H](O)[C@H](C)/C=C(\C)C(OC(N)=O)C(OC)/C=C\C=C(/C)C(=O)NC(=CC1=O)C2=O` (stereo partly drawn), the TGI is 44.4 µM in the experiment on HOP-62 NSCLC; 28.8 µM with MDA-MB-435; 13.5 µM in the experiment with MOLT-4 leukemia; 36.8 µM in the experiment on HS 578T breast; 84.4 µM with EKVX NSCLC; 18.3 µM in the experiment on SF-539 CNS. Moreover, the TGI in the experiment with MDA-MB-231 breast is 7.47 µM; in the experiment with SN12C renal it was 28.7 µM; in the experiment with UACC-257 melanoma, 36.4 µM. Moreover, the GI50 with MDA-MB-435 was 0.0903 µM; with MOLT-4 leukemia, 0.492 µM; in the experiment on HS 578T breast, 0.625 µM; with EKVX NSCLC it was 16 µM; in the experiment on SF-539 CNS, 0.402 µM; in the experiment on MDA-MB-231 breast it was 3.36 µM. Further, the GI50 in the experiment with SN12C renal is 0.235 µM; in the experiment on UACC-257 melanoma it was 0.318 µM.

Take `O=C(O)c1cccc2c1/C(=N/Nc1ccccc1)CC2`: the TGI in the experiment with M14 melanoma, in the experiment on HOP-62 NSCLC, in the experiment with MDA-MB-435, in the experiment on MOLT-4 leukemia, in the experiment on HS 578T breast and with EKVX NSCLC was above 100 µM throughout. Further, the TGI in the experiment on SF-539 CNS, in the experiment with MDA-MB-231 breast and in the experiment with UACC-257 melanoma was above 100 µM each time.

The record behind these values is PubChem BioAssay (NCI).
